Test results from patent US9403823B2, “Protein kinase inhibitors” (ORIBASE PHARMA, priority 2012, dated 2016).
Where two headings read alike, the source gives them in different places.

Columns and labels:
HUVEC = test: In vitro cell proliferation assay (MTT), HUVEC; format: cell-based; settings: Homo sapiens, read-out: EC50, anti-proliferative activity
Description: (§1) 2) In Vitro Cell Proliferation Assays (Table 22 to Table 35)
(§2) Cancer cell lines (5×10^3 cells per well) or HUVEC (1×10^4 cells per well) or HRMEC (1×10^4 cells per well) were distributed in 96-well plates and incubating in duplicate with escalating concentrations (10 nM to 3 μM) of compounds for 72 hr. Cell proliferation was measured using MTT (3[4,5-dimethylthiazol-2-yl]-2,5-diphenyltetrazolium bromide).

A549 cell line = test: In vitro cell proliferation assay (MTT), A549; format: cell-based; settings: Homo sapiens, read-out: EC50, anti-proliferative activity
Description: as §1, §2

MDA-MB-231 cell line = test: In vitro cell proliferation assay (MTT), MDA-MB-231; format: cell-based; settings: Homo sapiens, read-out: EC50, anti-proliferative activity
Description: as §1, §2

HepG2 cell line = test: In vitro cell proliferation assay (MTT), HepG2; format: cell-based; settings: Homo sapiens, read-out: EC50, anti-proliferative activity
Description: as §1, §2

HeLa cell line = test: In vitro cell proliferation assay (MTT), HeLa; format: cell-based; settings: Homo sapiens, read-out: EC50, anti-proliferative activity
Description: as §1, §2

BRAF = target: T1, BRAF (Homo sapiens, UniProt P15056); test: In vitro kinase assay (Z'-LYTE), BRAF; format: biochemical; settings: read-out: % of inhibition of the kinase compared to the control
T1 construct: purchased Invitrogen
Description: (§3) 1) In Vitro Kinase Assays (Table 10 to Table 21)
(§4) The inhibitory activity of the compounds on several kinases including BRAF, EGFR (ErbB1), EGFR (ErbB1) T790M L858R, FGFR2, KDR (VEGFR2), PDGFRA (PDGFR alpha), SRC and other was evaluated by Invitrogen using the Z′-LYTE® technology. Briefly, the Z′-LYTE® biochemical assay employs a fluorescence-based, coupled-enzyme format and is based on the differential sensitivity of phosphorylated and non-phosphorylated peptides to proteolytic cleavage. The peptide substrate is labeled with two fluorophores—one at each end—that make up a FRET pair. A ratiometric method, which calculates the ratio (the Emission Ratio) of donor emission to acceptor emission after excitation of the donor fluorophore at 400 nm, is used to quantitate reaction progress.
(§5) The compounds are screened in 1% DMSO (final) in the well. For 10 point titrations, 3-fold serial dilutions are conducted from the starting concentration. All Peptide/Kinase Mixtures are diluted to a 2× working concentration in the appropriate Kinase Buffer. All ATP Solutions are diluted to a 4× working concentration in Kinase Buffer (50 mM HEPES pH 7.5, 0.01% BRIJ-35, 10 mM MgCl2, 1 mM EGTA). ATP Km apparent is previously determined using a Z′-LYTE® assay.
(§6) Each compound was incubated at a concentration of 100 nM (excepted to test the activity against ABL and ABL T315I for which the compounds were incubated at a concentration of 10 μM) and the tables 10 to 21 summarize the results obtained showing the inhibitory power of a compound.

SRC = target: T2, SRC (Homo sapiens, UniProt P12931); test: In vitro kinase assay (Z'-LYTE), SRC; format: biochemical; settings: read-out: % of inhibition of the kinase compared to the control
T2 construct: purchased Invitrogen
Description: as §3, §4, §5, §6

FGFR2 = target: T3, FGFR2 (Homo sapiens, UniProt P21802); test: In vitro kinase assay (Z'-LYTE), FGFR2; format: biochemical; settings: read-out: % of inhibition of the kinase compared to the control
T3 construct: purchased Invitrogen
Description: as §3, §4, §5, §6

KDR (VEGFR2) = target: T4, KDR (VEGFR2) (Homo sapiens, UniProt P35968); test: In vitro kinase assay (Z'-LYTE), KDR (VEGFR2); format: biochemical; settings: read-out: % of inhibition of the kinase compared to the control
T4 construct: purchased Invitrogen
Description: as §3, §4, §5, §6

EGFR (ErbB1) = target: T5, EGFR (ErbB1) (Homo sapiens, UniProt P00533); test: In vitro kinase assay (Z'-LYTE), EGFR (ErbB1); format: biochemical; settings: read-out: % of inhibition of the kinase compared to the control
T5 construct: purchased Invitrogen
Description: as §3, §4, §5, §6

EGFR (ErbB1) T790M L858R = target: T6, EGFR (ErbB1) T790M L858R (Homo sapiens, UniProt P00533, L858R/T790M); test: In vitro kinase assay (Z'-LYTE), EGFR (ErbB1) T790M L858R; format: biochemical; settings: read-out: % of inhibition of the kinase compared to the control
T6 construct: purchased Invitrogen
Description: as §3, §4, §5, §6

PDGFRA (PDGFR alpha) = target: T7, PDGFRA (PDGFR alpha) (Homo sapiens, UniProt P16234); test: In vitro kinase assay (Z'-LYTE), PDGFRA; format: biochemical; settings: read-out: % of inhibition of the kinase compared to the control
T7 construct: purchased Invitrogen
Description: as §3, §4, §5, §6

HuH7 cell line = test: In vitro cell proliferation assay (MTT), HuH7; format: cell-based; settings: Homo sapiens, Huh-7; HuH7, 72 hr, MTT; read-out: EC50, anti-proliferative activity
Description: as §1, §2

HuCCT1 cell line = test: In vitro cell proliferation assay (MTT), HuCCT1; format: cell-based; settings: Homo sapiens, HuCCT-1; HuCCT1, 72 hr, MTT; read-out: EC50, anti-proliferative activity
Description: as §1, §2

HT29 cell line = test: In vitro cell proliferation assay (MTT), HT29; format: cell-based; settings: Homo sapiens, HT-29; HT29, 72 hr, MTT; read-out: EC50, anti-proliferative activity
Description: as §1, §2

H1975 cell line = test: In vitro cell proliferation assay (MTT), H1975; format: cell-based; settings: Homo sapiens, NCI-H1975; H1975, 72 hr, MTT; read-out: EC50, anti-proliferative activity
Description: as §1, §2

T1 sequence (P15056 whole entry): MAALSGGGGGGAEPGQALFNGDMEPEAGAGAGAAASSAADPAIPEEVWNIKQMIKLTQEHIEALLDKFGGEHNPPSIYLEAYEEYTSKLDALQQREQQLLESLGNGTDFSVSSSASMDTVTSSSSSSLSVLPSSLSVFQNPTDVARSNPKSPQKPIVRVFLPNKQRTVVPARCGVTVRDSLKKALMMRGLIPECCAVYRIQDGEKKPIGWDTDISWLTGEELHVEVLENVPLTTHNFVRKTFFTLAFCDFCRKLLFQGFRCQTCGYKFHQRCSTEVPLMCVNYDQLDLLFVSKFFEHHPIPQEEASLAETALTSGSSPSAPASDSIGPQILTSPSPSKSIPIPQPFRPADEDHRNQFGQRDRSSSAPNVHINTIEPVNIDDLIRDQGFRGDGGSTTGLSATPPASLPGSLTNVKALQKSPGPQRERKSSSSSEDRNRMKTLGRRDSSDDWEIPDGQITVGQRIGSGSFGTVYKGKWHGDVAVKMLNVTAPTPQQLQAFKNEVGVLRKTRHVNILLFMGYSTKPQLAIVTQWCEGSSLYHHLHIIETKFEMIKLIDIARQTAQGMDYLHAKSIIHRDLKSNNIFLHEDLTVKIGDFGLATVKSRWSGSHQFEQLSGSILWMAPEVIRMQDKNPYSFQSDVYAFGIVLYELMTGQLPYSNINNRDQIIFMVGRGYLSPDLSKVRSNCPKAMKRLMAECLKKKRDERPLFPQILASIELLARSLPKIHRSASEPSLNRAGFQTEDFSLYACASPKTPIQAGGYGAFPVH
T3 sequence (P21802 22-821): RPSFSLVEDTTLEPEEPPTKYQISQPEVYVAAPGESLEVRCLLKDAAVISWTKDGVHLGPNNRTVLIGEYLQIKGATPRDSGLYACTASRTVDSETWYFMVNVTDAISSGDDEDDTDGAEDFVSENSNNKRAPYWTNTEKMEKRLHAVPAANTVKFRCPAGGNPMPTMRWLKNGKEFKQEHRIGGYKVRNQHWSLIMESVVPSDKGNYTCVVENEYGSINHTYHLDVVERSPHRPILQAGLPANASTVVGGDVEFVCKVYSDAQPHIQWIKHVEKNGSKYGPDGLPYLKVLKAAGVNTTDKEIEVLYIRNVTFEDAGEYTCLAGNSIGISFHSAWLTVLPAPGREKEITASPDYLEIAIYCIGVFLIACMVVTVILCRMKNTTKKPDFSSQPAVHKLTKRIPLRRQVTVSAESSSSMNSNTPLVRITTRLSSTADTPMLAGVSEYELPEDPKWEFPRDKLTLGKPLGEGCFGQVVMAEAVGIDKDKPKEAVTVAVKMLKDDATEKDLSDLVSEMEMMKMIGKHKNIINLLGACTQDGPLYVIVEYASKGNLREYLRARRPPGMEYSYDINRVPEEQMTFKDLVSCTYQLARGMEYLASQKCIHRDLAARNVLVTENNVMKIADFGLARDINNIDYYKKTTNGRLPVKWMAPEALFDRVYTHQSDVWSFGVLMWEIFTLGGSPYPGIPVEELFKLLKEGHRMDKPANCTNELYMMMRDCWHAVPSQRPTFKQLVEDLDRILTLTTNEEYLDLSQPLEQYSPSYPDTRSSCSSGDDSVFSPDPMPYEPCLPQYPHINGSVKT
T7 sequence (P16234 24-1089): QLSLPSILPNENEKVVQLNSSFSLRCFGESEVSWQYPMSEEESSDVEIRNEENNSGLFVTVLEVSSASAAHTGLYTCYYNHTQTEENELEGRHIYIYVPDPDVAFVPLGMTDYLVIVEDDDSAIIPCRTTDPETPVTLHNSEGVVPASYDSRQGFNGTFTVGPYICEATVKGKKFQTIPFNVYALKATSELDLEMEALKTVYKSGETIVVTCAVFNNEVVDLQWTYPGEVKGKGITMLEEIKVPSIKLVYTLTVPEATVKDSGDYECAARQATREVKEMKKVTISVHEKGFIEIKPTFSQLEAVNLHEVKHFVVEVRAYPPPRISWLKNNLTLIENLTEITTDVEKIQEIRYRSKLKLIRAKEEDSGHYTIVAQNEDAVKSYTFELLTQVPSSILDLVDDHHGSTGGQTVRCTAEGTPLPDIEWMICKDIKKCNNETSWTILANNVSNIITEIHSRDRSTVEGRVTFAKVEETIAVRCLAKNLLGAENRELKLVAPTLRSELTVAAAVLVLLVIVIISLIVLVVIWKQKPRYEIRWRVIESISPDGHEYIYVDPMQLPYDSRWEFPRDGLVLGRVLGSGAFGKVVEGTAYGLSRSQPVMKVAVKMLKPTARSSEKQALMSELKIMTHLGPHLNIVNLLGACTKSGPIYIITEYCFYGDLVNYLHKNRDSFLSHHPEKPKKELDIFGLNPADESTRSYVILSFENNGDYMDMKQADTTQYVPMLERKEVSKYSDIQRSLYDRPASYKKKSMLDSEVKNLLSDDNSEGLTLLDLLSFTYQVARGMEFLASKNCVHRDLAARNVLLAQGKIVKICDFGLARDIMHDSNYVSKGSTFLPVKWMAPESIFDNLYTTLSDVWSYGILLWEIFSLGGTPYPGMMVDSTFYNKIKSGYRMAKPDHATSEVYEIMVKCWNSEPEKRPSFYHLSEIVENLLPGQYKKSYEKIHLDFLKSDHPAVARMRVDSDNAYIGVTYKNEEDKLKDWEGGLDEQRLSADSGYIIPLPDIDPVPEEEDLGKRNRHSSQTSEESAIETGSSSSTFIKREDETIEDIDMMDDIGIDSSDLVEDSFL
T4 sequence (P35968 20-1356): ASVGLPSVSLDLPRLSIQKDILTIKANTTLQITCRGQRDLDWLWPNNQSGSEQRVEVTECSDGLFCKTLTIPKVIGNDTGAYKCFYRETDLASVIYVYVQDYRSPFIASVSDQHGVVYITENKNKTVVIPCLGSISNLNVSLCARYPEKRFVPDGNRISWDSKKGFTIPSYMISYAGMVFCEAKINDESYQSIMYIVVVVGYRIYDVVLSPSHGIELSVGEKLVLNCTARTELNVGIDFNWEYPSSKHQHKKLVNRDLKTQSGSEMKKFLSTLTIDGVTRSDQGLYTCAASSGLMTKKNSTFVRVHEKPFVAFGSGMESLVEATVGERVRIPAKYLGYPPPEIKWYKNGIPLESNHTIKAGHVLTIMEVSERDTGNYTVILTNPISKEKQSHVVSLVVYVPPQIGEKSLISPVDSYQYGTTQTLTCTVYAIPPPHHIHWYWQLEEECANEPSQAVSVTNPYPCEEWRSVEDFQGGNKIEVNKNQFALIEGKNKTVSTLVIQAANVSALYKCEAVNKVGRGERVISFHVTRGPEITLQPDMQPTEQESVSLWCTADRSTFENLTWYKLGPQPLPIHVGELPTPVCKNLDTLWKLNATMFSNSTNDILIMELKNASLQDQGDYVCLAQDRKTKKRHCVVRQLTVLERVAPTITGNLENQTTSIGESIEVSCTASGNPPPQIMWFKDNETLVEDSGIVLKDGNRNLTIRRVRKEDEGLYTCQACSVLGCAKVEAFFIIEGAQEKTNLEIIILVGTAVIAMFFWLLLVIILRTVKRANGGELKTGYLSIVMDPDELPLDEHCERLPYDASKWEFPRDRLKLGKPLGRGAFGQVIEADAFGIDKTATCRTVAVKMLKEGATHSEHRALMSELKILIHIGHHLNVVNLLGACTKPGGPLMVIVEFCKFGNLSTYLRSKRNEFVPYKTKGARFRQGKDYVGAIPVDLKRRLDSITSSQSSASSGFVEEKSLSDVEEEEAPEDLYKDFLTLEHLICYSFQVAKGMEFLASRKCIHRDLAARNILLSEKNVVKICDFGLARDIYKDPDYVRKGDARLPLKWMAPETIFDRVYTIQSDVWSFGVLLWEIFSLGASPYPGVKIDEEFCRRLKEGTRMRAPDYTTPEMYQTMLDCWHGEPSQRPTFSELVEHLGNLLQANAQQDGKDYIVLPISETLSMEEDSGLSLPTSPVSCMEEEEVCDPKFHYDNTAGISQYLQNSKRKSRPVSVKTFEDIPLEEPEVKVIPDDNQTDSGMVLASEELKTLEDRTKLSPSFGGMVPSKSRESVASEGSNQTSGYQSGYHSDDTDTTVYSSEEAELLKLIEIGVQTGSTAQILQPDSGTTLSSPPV
T2 sequence (P12931 whole entry): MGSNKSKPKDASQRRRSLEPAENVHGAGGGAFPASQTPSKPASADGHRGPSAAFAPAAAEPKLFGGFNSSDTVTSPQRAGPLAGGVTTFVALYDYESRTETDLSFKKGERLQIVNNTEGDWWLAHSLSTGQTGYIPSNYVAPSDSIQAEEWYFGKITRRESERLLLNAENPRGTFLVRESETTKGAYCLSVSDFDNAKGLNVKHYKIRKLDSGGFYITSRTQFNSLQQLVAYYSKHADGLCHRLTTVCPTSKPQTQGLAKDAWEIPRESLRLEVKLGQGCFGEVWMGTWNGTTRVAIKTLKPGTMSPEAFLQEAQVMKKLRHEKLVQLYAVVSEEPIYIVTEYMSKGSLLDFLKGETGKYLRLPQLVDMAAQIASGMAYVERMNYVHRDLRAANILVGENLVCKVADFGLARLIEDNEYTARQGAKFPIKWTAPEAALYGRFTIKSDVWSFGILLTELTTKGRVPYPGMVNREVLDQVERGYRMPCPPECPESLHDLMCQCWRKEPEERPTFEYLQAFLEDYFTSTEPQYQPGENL

SMILES | EC50 (HUVEC; 72 hr, MTT) | EC50 (A549 cell line; A549, 72 hr, MTT) | EC50 (HeLa cell line; 72 hr, MTT) | inhibition at 0.1 µM (BRAF) | inhibition at 0.1 µM (SRC) | inhibition at 0.1 µM (FGFR2) | inhibition at 0.1 µM (KDR (VEGFR2)) | inhibition at 0.1 µM (EGFR (ErbB1)) | inhibition at 0.1 µM (PDGFRA (PDGFR alpha)) | EC50 (HUVEC; 72 h) | EC50 (MDA-MB-231 cell line; MDA-MB-231, 72 h) | EC50 (HepG2 cell line; HepG2, 72 h) | further results
CC(=O)c1cc2cc(NCc3cc(NC(=O)C4CCC(C(F)(F)F)CC4)ccc3F)cnc2[nH]1 (stereo not drawn) [OR1058, 4-Trifluoromethyl-cyclohexanecarboxylic acid {3-[(2-acetyl-1H-pyrrolo[2,3-b]pyridin-5-ylamino)-methyl]-4-fluoro-phenyl}-amide] | ≥ 1000 nM | ≥ 1000 nM | ≥ 1000 nM |  |  |  |  |  |  |  |  |  | EC50 (MDA-MB-231 cell line; MDA-MB-231, 72 hr, MTT): ≥ 1000 nM; EC50 (HepG2 cell line; HepG2, 72 hr, MTT): ≥ 1000 nM
CC(=O)c1cc2cc(NCc3cc(NC(=O)c4cc(-n5cnc(C)c5)cc(C(F)(F)F)c4)ccc3C)cnc2[nH]1 [OR0719, N-{3-[(2-Acetyl-1H-pyrrolo[2,3-b]pyridin-5-ylamino)-methyl]-4-methyl-phenyl}-3-(4-methyl-imidazol-1-yl)-5-trifluoromethyl-benzamide] |  |  |  | ≥ 50% | ≥ 50% | < 50% | < 50% | < 50% | < 50% |  |  |  | inhibition at 0.1 µM (EGFR (ErbB1) T790M L858R): < 50%
CC(=O)c1cc2cc(NCc3cc(NC(=O)c4ccc(CN5CCN(C)CC5)cc4)ccc3C)cnc2[nH]1 [OR0734, N-{3-[(2-Acetyl-1H-pyrrolo[2,3-b]pyridin-5-ylamino)-methyl]-4-methyl-phenyl}-4-(4-methyl-piperazin-1-ylmethyl)-benzamide] |  |  |  | < 50% | ≥ 50% | < 50% | ≥ 50% | ≥ 50% | ≥ 50% |  |  |  | EC50 (HuH7 cell line): ≥ 1000 nM
Cc1ccc(NC(=O)c2ccc(CN3CCN(C)CC3)cc2)cc1CNc1cnc2[nH]c(C(=O)O)cc2c1 [OR0692, 5-{2-Methyl-5-[4-(4-methyl-piperazin-1-ylmethyl)-benzoylamino]-benzylamino}-1H-pyrrolo[2,3-b]pyridine-2-carboxylic acid] |  |  |  | < 50% | ≥ 50% | < 50% | ≥ 50% | ≥ 50% | ≥ 50% |  |  |  | inhibition at 0.1 µM (EGFR (ErbB1) T790M L858R): < 50%
CC(=O)c1cc2cc(NCc3cc(NC(=O)c4ccc(CN5CCN(C)CC5)c(C(F)(F)F)c4)ccc3F)cnc2[nH]1 [OR0972, N-{3-[(2-Acetyl-1H-pyrrolo[2,3-b]pyridin-5-ylamino)-methyl]-4-fluoro-phenyl}-4-(4-methyl-piperazin-1-ylmethyl)-3-trifluoromethyl-benzamide] |  |  |  | < 50% |  | ≥ 50% | ≥ 50% | ≥ 50% |  | 100 to 1000 nM | ≤ 100 nM | ≤ 100 nM | EC50 (A549 cell line; A549, 72 h): 100 to 1000 nM; EC50 (HeLa cell line; 72 h): 100 to 1000 nM
COc1ccccc1C(=O)Nc1ccc(F)c(CNc2cnc3[nH]c(C(C)=O)cc3c2)c1 [OR1063, N-{3-[(2-Acetyl-1H-pyrrolo[2,3-b]pyridin-5-ylamino)-methyl]-4-fluoro-phenyl}-2-methoxy-benzamide] | ≥ 1000 nM | ≥ 1000 nM | ≥ 1000 nM |  |  |  |  |  |  |  |  |  | EC50 (MDA-MB-231 cell line; MDA-MB-231, 72 hr, MTT): ≥ 1000 nM; EC50 (HepG2 cell line; HepG2, 72 hr, MTT): ≥ 1000 nM
CC(=O)c1cc2cc(NCc3cc(NC(=S)Nc4cccc(C(F)(F)F)c4)ccc3C)cnc2[nH]1 [OR1015, 1-{3-[(2-Acetyl-1H-pyrrolo[2,3-b]pyridin-5-ylamino)-methyl]-4-methyl-phenyl}-3-(3-trifluoromethyl-phenyl)-thiourea] |  | ≥ 1000 nM | ≥ 1000 nM | < 50% | < 50% | < 50% | < 50% | < 50% | < 50% | 100 to 1000 nM |  | 100 to 1000 nM | EC50 (MDA-MB-231 cell line; MDA-MB-231, 72 hr, MTT): ≥ 1000 nM
CC(=O)c1cc2cc(NCc3cc(NC(=O)c4cc(N5CCN(C)CC5)cc(C(F)(F)F)c4)ccc3F)cnc2[nH]1 [OR1060, N-{3-[(2-Acetyl-1H-pyrrolo[2,3-b]pyridin-5-ylamino)-methyl]-4-fluoro-phenyl}-3-(4-methyl-piperazin-1-yl)-5-trifluoromethyl-benzamide] |  |  | ≥ 1000 nM |  |  |  |  |  |  | 100 to 1000 nM | 100 to 1000 nM | ≤ 100 nM | EC50 (A549 cell line; A549, 72 h): 100 to 1000 nM
Cc1nc(Nc2ncc(C(=O)Nc3c(C)cccc3Cl)s2)cc(N2CCN(CCO)CC2)n1 [Dasatinib, reference compound] |  |  |  |  |  |  |  |  |  |  |  |  | EC50 (HuCCT1 cell line): ≥ 1000 nM; EC50 (HepG2 cell line; HepG2, 72 hr, MTT): ≥ 1000 nM
CC(=O)c1cc2cc(NCc3cccc(NC(=O)c4ccc(CN5CCN(C)CC5)c(C(F)(F)F)c4)c3)cnc2[nH]1 [OR0926, N-{3-[(2-Acetyl-1H-pyrrolo[2,3-b]pyridin-5-ylamino)-methyl]-phenyl}-4-(4-methyl-piperazin-1-ylmethyl)-3-trifluoromethyl-benzamide] |  |  |  | < 50% |  | ≥ 50% | ≥ 50% | ≥ 50% |  | 100 to 1000 nM | ≤ 100 nM | ≤ 100 nM | EC50 (A549 cell line; A549, 72 h): 100 to 1000 nM; EC50 (HeLa cell line; 72 h): 100 to 1000 nM
CCCCCCNC(=O)c1cc2cc(NCc3cc(NC(=O)c4ccc(CN5CCN(C)CC5)c(C(F)(F)F)c4)ccc3C)cnc2[nH]1 [OR1069, 5-{2-Methyl-5-[4-(4-methyl-piperazin-1-ylmethyl)-3-trifluoromethyl-benzoylamino]-benzylamino}-1H-pyrrolo[2,3-b]pyridine-2-carboxylic acid hexylamide] |  |  | ≥ 1000 nM |  |  |  |  |  |  | 100 to 1000 nM | 100 to 1000 nM | 100 to 1000 nM | 
CC(=O)c1cc2cc(NC(=O)c3cccc(CNC(=S)c4cccc(C(F)(F)F)c4)c3)cnc2[nH]1 [OR1012, N-[3-(2-Acetyl-1H-pyrrolo[2,3-b]pyridin-5-ylcarbamoyl)-benzyl]-3-trifluoromethyl-thiobenzamide] | ≥ 1000 nM | ≥ 1000 nM | ≥ 1000 nM | < 50% | < 50% | < 50% | < 50% | < 50% | < 50% |  |  |  | EC50 (MDA-MB-231 cell line; MDA-MB-231, 72 hr, MTT): ≥ 1000 nM; EC50 (HepG2 cell line; HepG2, 72 hr, MTT): ≥ 1000 nM
CC(=O)c1cc2cc(NCc3cc(NC(=O)c4ccc(CN5CCN(C)CC5)c(F)c4)ccc3C)cnc2[nH]1 [OR0885, N-{3-[(2-Acetyl-1H-pyrrolo[2,3-b]pyridin-5-ylamino)-methyl]-4-methyl-phenyl}-3-fluoro-4-(4-methyl-piperazin-1-ylmethyl)-benzamide] | ≥ 1000 nM | ≥ 1000 nM | ≥ 1000 nM | ≥ 50% |  | ≥ 50% | ≥ 50% | ≥ 50% |  |  | 100 to 1000 nM | 100 to 1000 nM | 
CC(=O)c1cc2cc(NC(=O)c3cc(NC(=O)c4ccc(CN5CCN(C)CC5)cc4)ccc3C)cnc2[nH]1 [OR0780, N-(2-Acetyl-1H-pyrrolo[2,3-b]pyridin-5-yl)-2-methyl-5-[4-(4-methyl-piperazin-1-ylmethyl)-benzoylamino]-benzamide] | ≥ 1000 nM | ≥ 1000 nM |  | < 50% | < 50% | < 50% | < 50% | < 50% | ≥ 50% |  |  |  | EC50 (HT29 cell line): ≥ 1000 nM; EC50 (H1975 cell line): ≥ 1000 nM; inhibition at 0.1 µM (EGFR (ErbB1) T790M L858R): < 50%
